According to US20030170643A1, “Regulation of apoB treatment and drug screening for cardiovascular and metabolic disorders or syndromes” (priority 1999, published 2003):

Key:
[1] = system: rat primary hepatocytes; test: TBARS assay of ROS in rat primary hepatocytes; format: cell-based; settings: FIG. 16B
[2] = system: rat hepatoma cells; test: TBARS assay of ROS in cell lysates of rat hepatoma cells; format: cell-based; settings: co-treatment with DHA, FIG. 13C
Experimental: FIG. 13 illustrates that either an iron chelator (DFX) or lipid antioxidants block DHA-stimulated apoB degradation and reactive oxygen species (ROS) production. Rat hepatoma cells were plated in culture wells and pre-incubated in media containing either DHA or DHA with one of the indicated compounds. Radiolabeled methionine/cysteine was added to the culture media for 15 minutes, after which time, the culture media were replaced by fresh media identical in composition except that radiolabeled methionine/cysteine were replaced by unlabeled methionone/cysteine. The recovery of labeled apoB100 ([^35S]-apoB100) from the media and cell lysate was determined at the indicated time points (with time 0 being the point when the fresh media were applied to the cells) by immunoprecipitating apoB species with a rabbit polyclonal antibody to rat apoB, resuspending the immunoprecipitates, combining aliquots from cell lysate and media samples from each well, resolving the protein contents of the combined immunoprecipitates by SDS-polyacrylamide gel electrophoresis (SDS-PAGE), and exposing the resultant gels to X-ray film in order to visualize the labeled apoB bands. In panel A are shown representative signals for radiolabeled apoB100 in each of the treatment conditions. […] For each treatment, there were at least 2 wells/treatment for each time point and the entire experiment repeated. The signal intensities of the apoB100 bands were quantified by densitometry and the mean relative recoveries (the % of the 15 minute, or initial, value still remaining at 120 minutes) ±SEM are shown in panel B. Note that the visual impressions observable in panel A are confirmed by the quantitative analysis; i.e., there is a substantial increase in labeled apoB100 recovery with any of the co-treatments. In panel C, the ROS content of the cell lysates at the end of the experiment was measured by the standard TBARS assay (Stocks et al., 1974, Clin Sci Mol Med 47,215-222). Note that compared to control (BSA), DHA induced a large increase in TBARS, as expected because of its high content on unsaturated bonds. […] FIG. 15 illustrates that AA stimulates apoB100 degradation and increases ROS. […] Note in the upper panel that the combined recovery (from two separate wells/time point) of radiolabeled apoB100 decreased from 15 to 120 minutes, indicating significant apoB100 degradation had occurred in the presence of AA. […] In addition to being a source of ROS, AA can also be converted by cyclooxygenase (COX) to bioactive prostaglandin compounds. We therefore repeated the experiment with AA but with co-treatment by the COX inhibitor aspirin.

[3] = system: rat hepatoma cells; test: Pulse-chase recovery of [35S]-apoB100 (apoB100 degradation) in rat hepatoma cells; format: cell-based; settings: co-treatment with DHA, FIG. 13A and 13B
Experimental: FIG. 13 illustrates that either an iron chelator (DFX) or lipid antioxidants block DHA-stimulated apoB degradation and reactive oxygen species (ROS) production. Rat hepatoma cells were plated in culture wells and pre-incubated in media containing either DHA or DHA with one of the indicated compounds. Radiolabeled methionine/cysteine was added to the culture media for 15 minutes, after which time, the culture media were replaced by fresh media identical in composition except that radiolabeled methionine/cysteine were replaced by unlabeled methionone/cysteine. The recovery of labeled apoB100 ([^35S]-apoB100) from the media and cell lysate was determined at the indicated time points (with time 0 being the point when the fresh media were applied to the cells) by immunoprecipitating apoB species with a rabbit polyclonal antibody to rat apoB, resuspending the immunoprecipitates, combining aliquots from cell lysate and media samples from each well, resolving the protein contents of the combined immunoprecipitates by SDS-polyacrylamide gel electrophoresis (SDS-PAGE), and exposing the resultant gels to X-ray film in order to visualize the labeled apoB bands. In panel A are shown representative signals for radiolabeled apoB100 in each of the treatment conditions. […] For each treatment, there were at least 2 wells/treatment for each time point and the entire experiment repeated. The signal intensities of the apoB100 bands were quantified by densitometry and the mean relative recoveries (the % of the 15 minute, or initial, value still remaining at 120 minutes) ±SEM are shown in panel B. Note that the visual impressions observable in panel A are confirmed by the quantitative analysis; i.e., there is a substantial increase in labeled apoB100 recovery with any of the co-treatments. In panel C, the ROS content of the cell lysates at the end of the experiment was measured by the standard TBARS assay (Stocks et al., 1974, Clin Sci Mol Med 47,215-222). Note that compared to control (BSA), DHA induced a large increase in TBARS, as expected because of its high content on unsaturated bonds.
FIG. 14 illustrates that DHA, but not saturated MA, induces apoB100 degradation in rat hepatoma cells. An experiment similar to the one described in FIG. 13 was performed, with the following changes: A) The immunoprecipitates from cell lysate and media samples were not combined, but separately analyzed. B) In addition to the 15 and 120 minute time points, apoB recovery was determined at 30 minutes. C) In addition to DHA, the effects of the fatty acid myristic (MA) were also tested because it has no unsaturated bonds and should not give rise to ROS.
FIG. 15 illustrates that AA stimulates apoB100 degradation and increases ROS. […] Note in the upper panel that the combined recovery (from two separate wells/time point) of radiolabeled apoB100 decreased from 15 to 120 minutes, indicating significant apoB100 degradation had occurred in the presence of AA. […] In addition to being a source of ROS, AA can also be converted by cyclooxygenase (COX) to bioactive prostaglandin compounds. We therefore repeated the experiment with AA but with co-treatment by the COX inhibitor aspirin.
To further explore the underlying mechanisms, rat hepatoma cells or primary hepatocytes were incubated with the Ω-3 fatty acid DHA complexed to BSA, while blocking candidate cellular mediators. […] There was, however, strong evidence against a role for calcium. Chelation of intracellular Ca^++ with BAPTA-AM, pharmacologic blockage of Ca^++ channels, depletion of the ER-calcium pool, and increasing Ca++ influx with an ionophore each had no effect. Because EGTA also chelates Fe^+++, and DHA is subject to Fe^+++-dependent peroxidation, the role of this lipid modification was examined. As shown in FIG. 13A and 13B, Desferroxamine (DFX), a chelator of Fe^+++, the antioxidant vitamin E (Vit E), and the synthetic antioxidant BHT, each inhibited DHA-stimulated apoB100 degradation by ˜60%.

[4] = system: rat primary hepatocytes; test: Basal apoB100 degradation (pulse-chase recovery) in rat primary hepatocytes; format: cell-based; settings: FIG. 16A
[5] = system: rat primary hepatocytes; test: Lysosomal inhibition and DHA-induced degradation of newly synthesized apoB; format: cell-based; settings: with lysosomal inhibitor
Experimental: (§1) To determine whether the proteasome mediated Ω-3 fatty acid-induced apoB degradation, rat hepatoma cells were incubated at 37° C. for 4 hr in [^35S]methionine-containing medium supplemented with either BSA or EPA/BSA complexes in the absence or presence of the proteasome inhibitor, lactacystin ([…]; purchased from the laboratory of Dr. E. J. Corey, Harvard University). Samples of cell lysates and conditioned media were subjected to immunoprecipitation analysis with anti-apoB antiserum, followed by SDS-PAGE and fluorography. To determine whether Ω-3 fatty acids targeted apoB to lysosomal degradation, a similar experiment was performed substituting ammonium chloride (40 mM) for lactacystin.
(§2) More evidence against the involvement of re-uptake in Ω-3 fatty acid-induced degradation of apoB is based on the knowledge that lipoproteins captured by either LDL receptors (Brown, M. S., and Goldstein, J. L. (1986) Science 232(4746), 34-47) or heparan sulfate proteoglycans (Williams, K. J. et al. (1992) J Biol Chem 267(19), 13284-92; and Fuki, I. V. et al. (2000) J Biol Chem 275(33), 25742-50) are directed to lysosomes. Thus, rat primary hepatocytes cells were treated with either OA or DHA in the absence or presence of ammonium chloride, a lysosomal inhibitor. […]

[6] = system: 125I-LDL; test: Degradation of exogenously added 125I-LDL (lysosomal inhibition control); format: cell-based, rat
Experimental: as §1, §2

[7] = system: rat hepatoma cells; test: Cell toxicity by TCA-PTA precipitation analysis; format: cell-based; settings: 40 mM
Experimental: After electrophoresis, the gels were stained, fixed, soaked in Enhance fluor solution, and dried following protocols supplied by the manufacturer. Dried gels were then exposed to X-ray film at −70° C. and signals on the resulting fluorograms were typically quantified by densitometry or phosphorimaging. Using the total radioactivity applied to each lane of the gel and the relative signal intensity of each band in that lane, the radioactivity associated with each apoprotein species was calculated. In some cases, gel bands were excised and the incorporated radioactivity measured directly by scintillation counting. As a control, the incorporation of [^35S]methionine into total cellular and secreted proteins was measured by TCA-PTA precipitation, as described in Wang, H., Chen, X., and Fisher, E. A. (1993) J Clin Invest 91(4), 1380-9.
To determine whether the proteasome mediated Ω-3 fatty acid-induced apoB degradation, rat hepatoma cells were incubated at 37° C. for 4 hr in [^35S]methionine-containing medium supplemented with either BSA or EPA/BSA complexes in the absence or presence of the proteasome inhibitor, lactacystin ([…]; purchased from the laboratory of Dr. E. J. Corey, Harvard University). Samples of cell lysates and conditioned media were subjected to immunoprecipitation analysis with anti-apoB antiserum, followed by SDS-PAGE and fluorography. […]

| Molecule | ROS level (TBARS) [1] | DHA-increased ROS, TBARS assay, with co-treatment [2] | inhibition of DHA-stimulated apoB100 degradation [3] | basal level of apoB degradation [4] | DHA-induced degradation of newly synthesized apoB [5] | inhibition of the degradation of exogenously added 125I-LDL ([6]; ammonium chloride 40 mM) | degradation of 125I-LDL ([6]; rat primary hepatocytes) | cell toxicity assessed by TCA-PTA precipitation analysis [7] |
| --- | --- | --- | --- | --- | --- | --- | --- | --- |
| CC(=O)N(O)CCCCCNC(=O)CCC(=O)N(O)CCCCCNC(=O)CCC(=O)N(O)CCCCCN [DFX, desferrioxamine] | reduced | reduced | ~60% | essentially reversed | – | – | – | – |
| Cl.N [ammonium chloride] | – | – | – | – | no decrease | > 80% | decreased | no evidence of cell toxicity |
| vitamin E [Vit E] | reduced | reduced | ~60% | essentially reversed | – | – | – | – |
